PubChem BioAssay AID1919006 (Molecular Pharmacology Branch, DTP, NCI, 2023)

System: 885512-296-R-J2-PDC complex spheroid growth, % test/control
Assay: Anticancer human tumor 885512-296-R-J2-PDC patient-derived breast carcinoma cell line growth inhibition [AhR]
Details: for IC50: curve of first compound; for viability, T/C: stronger effect = lower value
Procedure, shortened: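 Complex tumor spheroids co-cultured with HUVEC and human MSC stroma; AhR antagonists tested in combination with standard-of-care and investigational agents. Top concentration at or near clinical Cmax (else 10 microM), half-log dilutions; growth expressed as percent test/control.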

[1] = second compound 0.1 µM, first compound 0.0316 µM
[2] = second compound 0.1 µM, first compound 0.1 µM
[3] = second compound 0.1 µM, first compound 0.316 µM
[4] = second compound 0.1 µM, first compound 1 µM
[5] = second compound 0.1 µM, first compound 3.16 µM
[6] = second compound 0.1 µM, first compound 10 µM
[7] = second compound 0.316 µM, first compound 0.0316 µM
[8] = second compound 0.316 µM, first compound 0.1 µM
[9] = second compound 0.316 µM, first compound 0.316 µM
[10] = second compound 0.316 µM, first compound 1 µM
[11] = second compound 0.316 µM, first compound 3.16 µM
[12] = second compound 0.316 µM, first compound 10 µM
[13] = second compound 1 µM, first compound 0.0316 µM
[14] = second compound 1 µM, first compound 0.1 µM
[15] = second compound 1 µM, first compound 0.316 µM
[16] = second compound 1 µM, first compound 1 µM
[17] = second compound 1 µM, first compound 3.16 µM
[18] = second compound 1 µM, first compound 10 µM
[19] = second compound 3.16 µM, first compound 0.0316 µM
[20] = second compound 3.16 µM, first compound 0.1 µM
[21] = second compound 3.16 µM, first compound 0.316 µM
[22] = second compound 3.16 µM, first compound 1 µM
[23] = second compound 3.16 µM, first compound 3.16 µM
[24] = second compound 3.16 µM, first compound 10 µM
[25] = second compound 10 µM, first compound 0.0316 µM
[26] = second compound 10 µM, first compound 0.1 µM
[27] = second compound 10 µM, first compound 0.316 µM
[28] = second compound 10 µM, first compound 1 µM
[29] = second compound 10 µM, first compound 3.16 µM
[30] = second compound 10 µM, first compound 10 µM
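Also: spheroids exposed to compounds for seven days.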

| SMILES | IC50 (second compound 0.1 µM) [nM] | IC50 (second compound 0.316 µM) [nM] | IC50 (second compound 1 µM) [nM] | IC50 (second compound 3.16 µM) [nM] | IC50 (second compound 10 µM) [nM] | viability, T/C [1] [%] | viability, T/C [2] [%] | viability, T/C [3] [%] | viability, T/C [4] [%] | viability, T/C [5] [%] | viability, T/C [6] [%] | viability, T/C [7] [%] | viability, T/C [8] [%] | viability, T/C [9] [%] | viability, T/C [10] [%] | viability, T/C [11] [%] | viability, T/C [12] [%] | viability, T/C [13] [%] | viability, T/C [14] [%] | viability, T/C [15] [%] | other results |
| --- | --- | --- | --- | --- | --- | --- | --- | --- | --- | --- | --- | --- | --- | --- | --- | --- | --- | --- | --- | --- | --- |
| Nc1ccn(C2OC(CO)C(O)C2(F)F)c(=O)n1 (stereo not given) + Cc1ccccc1N=Nc1ccc(NC(=O)c2ccnn2C)c(C)c1 | < 31.6 | < 31.6 | < 31.6 | < 31.6 | < 31.6 | 3.22 | 3.21 | 3.37 | 3.91 | 5.19 | 4.82 | 3.01 | 3.13 | 3.98 | 4.91 | 7.26 | 4.9 | 3.39 | 3.19 | 5.43 | viability, T/C [16]: 5.88%; viability, T/C [17]: 5.6%; viability, T/C [18]: 6.93%; viability, T/C [19]: 3.31%; viability, T/C [20]: 3.09%; viability, T/C [21]: 5.1%; viability, T/C [22]: 5.57%; viability, T/C [23]: 4.88%; viability, T/C [24]: 5.93%; viability, T/C [25]: 3.17%; viability, T/C [26]: 3.46%; viability, T/C [27]: 4.17%; viability, T/C [28]: 4.62%; viability, T/C [29]: 5.33%; viability, T/C [30]: 5.12% |
| O=C(C=Cc1cccc(S(=O)(=O)Nc2ccccc2)c1)NO + Cc1ccccc1N=Nc1ccc(NC(=O)c2ccnn2C)c(C)c1 | 871 | 1160 | 1090 | 773 | 33.8 | 84.5 | 82.9 | 67.6 | 45 | 27.8 | 7.04 | 86.4 | 85.8 | 80.8 | 47.8 | 30.6 | 7.44 | 88.2 | 85.5 | 68.9 | viability, T/C [16]: 51.4%; viability, T/C [17]: 29.8%; viability, T/C [18]: 7.53%; viability, T/C [19]: 73.8%; viability, T/C [20]: 73%; viability, T/C [21]: 67.5%; viability, T/C [22]: 40.6%; viability, T/C [23]: 28.2%; viability, T/C [24]: 6.85%; viability, T/C [25]: 51%; viability, T/C [26]: 46.8%; viability, T/C [27]: 41.9%; viability, T/C [28]: 32.5%; viability, T/C [29]: 27.6%; viability, T/C [30]: 7.31% |
| O=C(c1cc(Cc2n[nH]c(=O)c3ccccc23)ccc1F)N1CCN(C(=O)C2CC2)CC1 + Cc1ccccc1N=Nc1ccc(NC(=O)c2ccnn2C)c(C)c1 | 5920 | 5820 | 5520 | 4790 | 3440 | 118 | 135 | 147 | 117 | 83.7 | 22.6 | 138 | 145 | 138 | 130 | 80 | 23.4 | 121 | 133 | 132 | viability, T/C [16]: 109%; viability, T/C [17]: 80.4%; viability, T/C [18]: 18.7%; viability, T/C [19]: 110%; viability, T/C [20]: 103%; viability, T/C [21]: 111%; viability, T/C [22]: 101%; viability, T/C [23]: 66.6%; viability, T/C [24]: 20.8%; viability, T/C [25]: 67.1%; viability, T/C [26]: 59.5%; viability, T/C [27]: 66.4%; viability, T/C [28]: 70.8%; viability, T/C [29]: 52.6%; viability, T/C [30]: 17.5% |
